From ChEMBL document CHEMBL5038656, “5-C-Branched Deoxynojirimycin: Strategy for Designing a 1-Deoxynojirimycin-Based Pharmacological Chaperone with a Nanomolar Affinity for Pompe Disease” (J Med Chem, 2022)

Experiments:
[1] = molecular target: T1, Lysosomal alpha-glucosidase (Homo sapiens, UniProt P10253); settings: dose 10.0 µM
Description: Stabilization of recombinant human GAA using 4-methylumbelliferyl-alpha-D-glucopyranoside as substrate assessed as relative fluorescence intensity by measuring midpoint temperature protein denaturation at 10 uM by thermal shift assay (Rvb = 58.6 degC)

[2] = Inhibition of Glycosidase (unknown origin); design: species or system Homo sapiens
[3] = molecular target: T1, Lysosomal alpha-glucosidase; assay: Inhibition of human GAA using 4-methylumbelliferyl-alpha-D-glucopyranoside as substrate preincubated for 45 min followed by substrate addition and measured after 30 min by fluorescence spectrophotometer analysis
[4] = Inhibition of Endoplasmic reticulum alpha-glucosidase (unknown origin); design: species or system Homo sapiens
[5] = Inhibition of Penicillium decumbens Alpha-L-rhamnosidase
[6] = Inhibition of Lysosomal alpha-glucosidase in Aspergillus niger
[7] = Inhibition of rat intestinal maltase
[8] = molecular target: Sucrase-isomaltase, intestinal (Homo sapiens, UniProt P14410); assay: Inhibition of Sucrase (unknown origin)
Sucrase-isomaltase, intestinal, sequence (P14410 2-1007 limits assumed): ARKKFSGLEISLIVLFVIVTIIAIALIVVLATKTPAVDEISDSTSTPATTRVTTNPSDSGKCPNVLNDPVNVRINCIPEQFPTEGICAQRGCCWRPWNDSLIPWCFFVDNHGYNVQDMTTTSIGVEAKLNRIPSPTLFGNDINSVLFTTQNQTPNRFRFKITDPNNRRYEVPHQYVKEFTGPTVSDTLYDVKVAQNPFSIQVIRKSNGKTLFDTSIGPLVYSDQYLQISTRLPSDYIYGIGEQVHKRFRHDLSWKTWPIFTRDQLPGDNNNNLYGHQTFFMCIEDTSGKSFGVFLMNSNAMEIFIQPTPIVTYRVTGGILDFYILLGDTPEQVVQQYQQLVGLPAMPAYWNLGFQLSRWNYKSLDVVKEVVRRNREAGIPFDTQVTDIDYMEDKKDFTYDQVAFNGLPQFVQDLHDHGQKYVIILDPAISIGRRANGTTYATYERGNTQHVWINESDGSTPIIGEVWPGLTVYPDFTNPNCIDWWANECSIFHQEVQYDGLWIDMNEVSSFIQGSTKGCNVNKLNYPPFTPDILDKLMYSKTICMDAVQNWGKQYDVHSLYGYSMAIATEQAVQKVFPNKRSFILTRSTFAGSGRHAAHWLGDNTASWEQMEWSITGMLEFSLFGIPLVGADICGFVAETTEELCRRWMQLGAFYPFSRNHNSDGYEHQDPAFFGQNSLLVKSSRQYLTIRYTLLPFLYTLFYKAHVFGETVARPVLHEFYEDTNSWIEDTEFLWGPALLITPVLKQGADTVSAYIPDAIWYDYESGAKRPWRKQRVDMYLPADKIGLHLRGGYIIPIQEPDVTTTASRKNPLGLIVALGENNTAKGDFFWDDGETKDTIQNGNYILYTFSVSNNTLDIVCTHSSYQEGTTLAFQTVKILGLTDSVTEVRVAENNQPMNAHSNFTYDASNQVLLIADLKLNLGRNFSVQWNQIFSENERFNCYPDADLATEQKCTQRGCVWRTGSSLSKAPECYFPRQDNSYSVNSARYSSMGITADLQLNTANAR
Sucrase-isomaltase, intestinal, sequence (P14410 1008-1827 limits assumed): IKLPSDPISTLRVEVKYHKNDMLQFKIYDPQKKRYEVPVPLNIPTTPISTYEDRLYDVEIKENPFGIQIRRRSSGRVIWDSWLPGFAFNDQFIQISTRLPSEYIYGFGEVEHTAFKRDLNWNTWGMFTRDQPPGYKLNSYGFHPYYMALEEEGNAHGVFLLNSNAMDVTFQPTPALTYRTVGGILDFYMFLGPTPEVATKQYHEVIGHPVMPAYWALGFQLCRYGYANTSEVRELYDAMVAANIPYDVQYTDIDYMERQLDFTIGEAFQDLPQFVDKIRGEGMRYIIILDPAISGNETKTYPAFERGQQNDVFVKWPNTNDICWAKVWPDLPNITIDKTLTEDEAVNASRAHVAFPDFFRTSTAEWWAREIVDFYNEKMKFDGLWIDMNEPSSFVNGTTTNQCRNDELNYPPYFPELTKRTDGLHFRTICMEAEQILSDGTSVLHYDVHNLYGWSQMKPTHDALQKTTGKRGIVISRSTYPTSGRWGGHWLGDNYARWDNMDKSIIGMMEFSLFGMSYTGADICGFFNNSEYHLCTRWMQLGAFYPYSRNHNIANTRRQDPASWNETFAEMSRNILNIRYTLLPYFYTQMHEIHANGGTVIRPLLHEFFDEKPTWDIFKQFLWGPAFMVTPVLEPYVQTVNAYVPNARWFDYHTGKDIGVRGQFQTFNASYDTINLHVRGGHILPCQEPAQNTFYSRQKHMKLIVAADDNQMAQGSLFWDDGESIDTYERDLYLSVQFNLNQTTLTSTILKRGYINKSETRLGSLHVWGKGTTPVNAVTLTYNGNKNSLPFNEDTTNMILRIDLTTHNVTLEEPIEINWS

[9] = Inhibition of Maltase (unknown origin); design: species or system Homo sapiens

Compound | Ki [3] [µM] | other results
C[C@]1(CO)NC[C@H](O)[C@@H](O)[C@@H]1O | 37 | Tm [1]: 69.5 °C; IC50 [2]: 1 µM
CCCCCCCN1C[C@H](O)[C@@H](O)[C@H](O)[C@H]1CO | 0.095 | 
C[C@@]1(O)CN[C@H](CO)[C@@H]1O |  | IC50 [2]: 12 µM
C[C@]1(O)CN2C[C@H](O)[C@H](O)[C@@H]2[C@@H](O)[C@@H]1O |  | IC50 [2]: 0.2 µM
CCCCCCC[C@]1(CO)NC[C@H](O)[C@@H](O)[C@@H]1O | 0.0047 | 
OC[C@H]1NC[C@H](O)[C@@H](O)[C@@H]1O [DUVOGLUSTAT] |  | IC50 [4]: 1.4 µM
CCCCCCC[C@@]1(CO)NC[C@H](O)[C@@H](O)[C@@H]1O | 2.5 | 
CCCCCC[C@]1(CO)NC[C@H](O)[C@@H](O)[C@@H]1O | 0.0061 | 
CCCC[C@]1(CO)NC[C@H](O)[C@@H](O)[C@@H]1O | 0.037 | Tm [1]: 70.2 °C
CCCCCCN1C[C@H](O)[C@@H](O)[C@H](O)[C@H]1CO | 0.13 | 
C[C@@]1(O)[C@H](O)CN[C@@H]1CO |  | IC50 [2]: 0.8 µM
CCN1C[C@H](O)[C@@H](O)[C@H](O)[C@H]1CO | 0.21 | 
O[C@@H]1[C@@H]2[C@@H](O)[C@H](O)[C@@H](O)CN2C[C@@H]1O |  | IC50 [5]: 530 µM
C[C@@H]1NC[C@@H](O)[C@H](O)[C@]1(C)O |  | IC50 [2]: 50 µM
CCCCCN1C[C@H](O)[C@@H](O)[C@H](O)[C@H]1CO | 0.21 | 
CC[C@]1(CO)NC[C@H](O)[C@@H](O)[C@@H]1O | 6 | 
CCCN1C[C@H](O)[C@@H](O)[C@H](O)[C@H]1CO | 0.36 | 
CCC[C@]1(CO)NC[C@H](O)[C@@H](O)[C@@H]1O | 0.059 | 
CCCCN1C[C@H](O)[C@@H](O)[C@H](O)[C@H]1CO | 0.2 | 
OC[C@H]1NC[C@@H](O)[C@H]1O |  | IC50 [6]: 0.19 µM
CCCCC[C@]1(CO)NC[C@H](O)[C@@H](O)[C@@H]1O | 0.019 | 
C[C@]1(CO)NC[C@@H](O)[C@@H]1O |  | IC50 [7]: 0.74 µM
OC[C@@H]1NC[C@H](O)[C@H]1O |  | IC50 [8]: 1 µM
OC[C@H]1NC[C@@H](O)[C@@H]1O |  | IC50 [9]: 55 µM
